# Data reported in patent US7138361B2, “Herbicidal heterocycles” (E. I. du Pont de Nemours and Company, priority 2000, dated 2006).
# Columns and labels:
# Assay type in all cases: in vivo
# corn (Zea mays) [1] = experiment: Test B preemergence
# In short: (§1)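 Preemergence: seeds planted and treated with test chemicals in non-phytotoxic solvent with surfactant; postemergence on plants 2–18 cm (1- to 4-leaf stage). Kept in greenhouse 13–15 days, then visually rated against controls on a 0 (no effect) to 100 (complete control) scale.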
# [2] = tested on: velvetleaf (Abutilon theophrasti); experiment: Test B preemergence
# In short: as §1
# [3] = tested on: Surinam grass (Brachiaria decumbens); experiment: Test B preemergence
# In short: as §1
# [4] = tested on: giant foxtail (Setaria faberii); experiment: Test B preemergence
# In short: as §1
# [5] = tested on: morning glory (Ipomoea hederacea); experiment: Test B preemergence
# In short: as §1
# [6] = tested on: cocklebur (Xanthium strumarium); experiment: Test B preemergence
# In short: as §1
# [7] = tested on: barnyardgrass (Echinochloa crus-galli); experiment: Test B preemergence
# In short: as §1
# [8] = tested on: lambsquarters (Chenopodium album); experiment: Test B preemergence
# In short: as §1
# [9] = tested on: crabgrass (Digitaria sanguinalis); experiment: Test B preemergence
# In short: as §1
# [10] = tested on: pigweed (Amaranthus retroflexus); experiment: Test B preemergence
# In short: as §1
# rice (Oryza saliva) = experiment: Test B preemergence
# In short: as §1
# Nightshade = experiment: Test C preemergence; settings: Rate 500 g/ha, visual evaluation after 12 to 14 days
# Sunflower = experiment: Test C preemergence; settings: Rate 500 g/ha, visual evaluation after 12 to 14 days
# corn (Zea mays) [11] = experiment: Test B postemergence; settings: 13 to 15 days
# In short: as §1
# [12] = tested on: velvetleaf (Abutilon theophrasti); experiment: Test B postemergence; settings: 13 to 15 days
# In short: as §1
# [13] = tested on: Surinam grass (Brachiaria decumbens); experiment: Test B postemergence; settings: 13 to 15 days
# In short: as §1
# [14] = tested on: wheat (Triticum aestivum); experiment: Test B postemergence; settings: 13 to 15 days
# In short: as §1
# [15] = tested on: giant foxtail (Setaria faberii); experiment: Test B postemergence; settings: 13 to 15 days
# In short: as §1
# wild oat (Avena fatua) = experiment: Test B postemergence; settings: 13 to 15 days
# In short: as §1
# [16] = tested on: morning glory (Ipomoea hederacea); experiment: Test B postemergence; settings: 13 to 15 days
# In short: as §1
# [17] = tested on: cocklebur (Xanthium strumarium); experiment: Test B postemergence; settings: 13 to 15 days
# In short: as §1
# [18] = tested on: barnyardgrass (Echinochloa crus-galli); experiment: Test B postemergence; settings: 13 to 15 days
# In short: as §1
# [19] = tested on: lambsquarters (Chenopodium album); experiment: Test B postemergence; settings: 13 to 15 days
# In short: as §1
# [20] = tested on: crabgrass (Digitaria sanguinalis); experiment: Test B postemergence; settings: 13 to 15 days
# In short: as §1
# [21] = tested on: blackgrass (Alopecurus myosuroides); experiment: Test B postemergence; settings: 13 to 15 days
# In short: as §1
# [22] = tested on: pigweed (Amaranthus retroflexus); experiment: Test B postemergence; settings: 13 to 15 days
# In short: as §1
# [23] = tested on: smallflower flatsedge (Cyperus difformis); experiment: Test C flooded paddy test; settings: for Flatsedge plant response rating: Flooded Paddy, scale 0 to 100, 0 no effect, 100 complete control; for Plant response rating, Flatsedge: flooded paddy test, scale 0 to 100 (0 no effect, 100 complete control)
# In short: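 2-leaf-stage plants, flooded paddy; treated; greenhouse 12–14 days; compared with controls by eye; rated 0–100 (0 none, 100 complete control).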
# [24] = Preemergence, Rate 500 g/ha, scale 0 to 100, 0 no effect, 100 complete control
# [25] = preemergence, Rate 125 g/ha, scale of 0 to 100 where 0 is no effect and 100 is complete control, 13 to 15 days
# [26] = Rate 125 g/ha, scale 0 (no effect) to 100 (complete control)
# [27] = Rate 500 g/ha, scale 0 to 100, 0 is no effect, 100 is complete control
smiles,measurement,setting,value
COc1cc(OC)cc(N2CCC(n3ccc(C(C)(C)C)n3)C2=O)c1 (stereo not drawn) [Compound 71],"Plant response rating, Corn",corn (Zea mays) [1]; [24],20
same,"Plant response rating, Corn",corn (Zea mays) [1]; [25],0
same,"Plant response rating, Velvetleaf",[2]; [24],30
same,"Plant response rating, Velvetleaf",[2]; [25],0
same,"Plant response rating, Surinam grass",[3]; [24],40
same,"Plant response rating, Surinam grass",[3]; [25],40
same,"Plant response rating, Foxtail, Giant",[4]; [24],100
same,"Plant response rating, Foxtail, Giant",[4]; [25],90
same,"Plant response rating, Morningglory",[5]; [24],0
same,"Plant response rating, Morningglory",[5]; [25],0
same,"Plant response rating, Cocklebur",[6]; [24],0
same,"Plant response rating, Cocklebur",[6]; [25],0
same,"Plant response rating, Barnyardgrass",[7]; [24],90
same,"Plant response rating, Barnyardgrass",[7]; [25],10
same,"Plant response rating, Lambsquarters",[8]; [24],100
same,"Plant response rating, Lambsquarters",[8]; [25],100
same,"Plant response rating, Crabgrass",[9]; [24],100
same,"Plant response rating, Crabgrass",[9]; [25],50
same,"Plant response rating, Pigweed",[10]; [24],100
same,"Plant response rating, Pigweed",[10]; [25],100
same,"Plant response rating, Rice",rice (Oryza saliva); [24],40
same,"Plant response rating, Rice",rice (Oryza saliva); [25],20
same,"Plant response rating (0 to 100), Nightshade",Nightshade,30
same,"Plant response rating (0 to 100), Sunflower",Sunflower,20
same,"Plant response rating, Corn",corn (Zea mays) [11]; [26],0
same,"Plant response rating, Corn",corn (Zea mays) [11]; [27],0
same,"Plant response rating, Velvetleaf",[12]; [26],0
same,"Plant response rating, Velvetleaf",[12]; [27],20
same,"Plant response rating, Surinam grass",[13]; [26],0
same,"Plant response rating, Surinam grass",[13]; [27],30
same,"Plant response rating, Wheat",[14]; [26],0
same,"Plant response rating, Wheat",[14]; [27],0
same,"Plant response rating, Foxtail, Giant",[15]; [26],0
same,"Plant response rating, Foxtail, Giant",[15]; [27],20
same,"Plant response rating, Wild Oat",wild oat (Avena fatua); [26],0
same,"Plant response rating, Wild Oat",wild oat (Avena fatua); [27],0
same,"Plant response rating, Morningglory",[16]; [26],20
same,"Plant response rating, Morningglory",[16]; [27],20
same,"Plant response rating, Cocklebur",[17]; [26],0
same,"Plant response rating, Cocklebur",[17]; [27],20
same,"Plant response rating, Barnyardgrass",[18]; [26],0
same,"Plant response rating, Barnyardgrass",[18]; [27],0
same,"Plant response rating, Lambsquarters",[19]; [26],0
same,"Plant response rating, Lambsquarters",[19]; [27],50
same,"Plant response rating, Crabgrass",[20]; [26],0
same,"Plant response rating, Crabgrass",[20]; [27],30
same,"Plant response rating, Blackgrass",[21]; [26],0
same,"Plant response rating, Blackgrass",[21]; [27],0
same,"Plant response rating, Pigweed",[22]; [26],30
same,"Plant response rating, Pigweed",[22]; [27],60
same,Flatsedge plant response rating,[23]; Rate 250 g/ha,100
same,Flatsedge plant response rating,[23]; Rate 500 g/ha,100
same,"Plant response rating, Flatsedge",[23]; Rate 62 g/ha,80
same,"Plant response rating, Flatsedge",[23]; Rate 125 g/ha,100
CCOC(=O)c1cccc(N2CCC(n3ccc(C(C)(C)C)n3)C2=O)c1 (stereo not drawn) [Compound 72],"Plant response rating, Corn",corn (Zea mays) [1]; [24],0
same,"Plant response rating, Corn",corn (Zea mays) [1]; [25],0
same,"Plant response rating, Velvetleaf",[2]; [24],90
same,"Plant response rating, Velvetleaf",[2]; [25],0
same,"Plant response rating, Surinam grass",[3]; [24],70
same,"Plant response rating, Surinam grass",[3]; [25],0
same,"Plant response rating, Foxtail, Giant",[4]; [24],100
same,"Plant response rating, Foxtail, Giant",[4]; [25],100
same,"Plant response rating, Morningglory",[5]; [24],90
same,"Plant response rating, Morningglory",[5]; [25],0
same,"Plant response rating, Cocklebur",[6]; [24],60
same,"Plant response rating, Cocklebur",[6]; [25],0
same,"Plant response rating, Barnyardgrass",[7]; [24],100
same,"Plant response rating, Barnyardgrass",[7]; [25],100
same,"Plant response rating, Lambsquarters",[8]; [24],100
same,"Plant response rating, Lambsquarters",[8]; [25],100
same,"Plant response rating, Crabgrass",[9]; [24],100
same,"Plant response rating, Crabgrass",[9]; [25],100
same,"Plant response rating, Pigweed",[10]; [24],100
same,"Plant response rating, Pigweed",[10]; [25],100
same,"Plant response rating, Rice",rice (Oryza saliva); [24],0
same,"Plant response rating, Rice",rice (Oryza saliva); [25],0
same,"Plant response rating (0 to 100), Nightshade",Nightshade,60
same,"Plant response rating (0 to 100), Sunflower",Sunflower,60
same,"Plant response rating, Corn",corn (Zea mays) [11]; [26],0
same,"Plant response rating, Corn",corn (Zea mays) [11]; [27],0
same,"Plant response rating, Velvetleaf",[12]; [26],30
same,"Plant response rating, Velvetleaf",[12]; [27],60
same,"Plant response rating, Surinam grass",[13]; [26],0
same,"Plant response rating, Surinam grass",[13]; [27],0
same,"Plant response rating, Wheat",[14]; [26],0
same,"Plant response rating, Wheat",[14]; [27],0
same,"Plant response rating, Foxtail, Giant",[15]; [26],0
same,"Plant response rating, Foxtail, Giant",[15]; [27],50
same,"Plant response rating, Wild Oat",wild oat (Avena fatua); [26],0
same,"Plant response rating, Wild Oat",wild oat (Avena fatua); [27],0
same,"Plant response rating, Morningglory",[16]; [26],20
same,"Plant response rating, Morningglory",[16]; [27],50
same,"Plant response rating, Cocklebur",[17]; [26],80
same,"Plant response rating, Cocklebur",[17]; [27],90
same,"Plant response rating, Barnyardgrass",[18]; [26],30
same,"Plant response rating, Barnyardgrass",[18]; [27],70
same,"Plant response rating, Lambsquarters",[19]; [26],0
same,"Plant response rating, Lambsquarters",[19]; [27],0
same,"Plant response rating, Crabgrass",[20]; [26],0
same,"Plant response rating, Crabgrass",[20]; [27],30
same,"Plant response rating, Blackgrass",[21]; [26],0
same,"Plant response rating, Blackgrass",[21]; [27],0
same,"Plant response rating, Pigweed",[22]; [26],20
same,"Plant response rating, Pigweed",[22]; [27],60
same,Flatsedge plant response rating,[23]; Rate 250 g/ha,90
same,Flatsedge plant response rating,[23]; Rate 500 g/ha,100
same,"Plant response rating, Flatsedge",[23]; Rate 62 g/ha,60
same,"Plant response rating, Flatsedge",[23]; Rate 125 g/ha,90
